These results are taken from article PMC10560236, “A protein kinase C α and β inhibitor blunts hyperphagia to halt renal function decline and reduces adiposity in a rat model of obesity-driven type 2 diabetes” (Scientific Reports, 2023).

As usually defined, the IC50 is the concentration that inhibits the measured activity by half.

Assay [1] deals with intact glomeruli isolated from SD rats. Briefly: PMA-luminol ROS assay in intact glomeruli. Format: cell-based. The settings on record: intact SD rat glomeruli, 16 μM PMA, luminol luminescence; read-out: IC50, PMA-induced ROS production (change in velocity). How it is done:
For the phorbol 12-myristate 13-acetate (PMA)-luminol assay, glomeruli isolated from PBS-perfused kidneys were diluted in an HBSS solution containing 1 mM luminol, 0.1 M HEPES, and 0.1% fatty-acid free BSA. Approximately 3000 glomeruli were plated per well in a 96-well white OPTI-plate (Perkin Elmer 6005290). The reaction was started by the addition of PMA to a final concentration of 16 μM in the absence or presence of increasing Cmpd 1. Luminol luminescence was read on an Envision plate reader in kinetic read mode.

For another assay, the system named is ZSF1 obese rats. The experiment in a line: 7-day food consumption and body weight study, Cmpd 1 chow, ZSF1 obese rats. The assay is classed as in vivo, rat. The settings on record: 7 days. From the text:
To evaluate food consumption in different rat strains, cohorts of 10 male ZSF1 obese rats, 8 male ZSF1 lean littermate rats, and 10 age-matched male Sprague Dawley (SD) rats were divided into two groups and fed chow with or without 0.744 g/kg Cmpd 1 (Cmpd 1 chow) for 7 days.

A further assay has as its target PKCη (Homo sapiens, UniProt P24723). Briefly: Z'-Lyte recombinant enzyme assay, PKCη. The assay is classed as biochemical. How it is done: (§1) Half maximal inhibitory concentrations of Cmpd 1 were determined by Z’-Lyte biochemical assays (Life Technologies SelectScreen™ Kinase Profiling Services, Thermo Fisher Scientific). Kinome selectivity was determined at 1 μM Cmpd 1 concentration against a panel of 119 kinases. The original kinome tree in Fig. 1b was taken from Ref.[68].

The subject of another assay is panel of 119 kinases. The experiment in a line: Kinome selectivity profiling. The assay is classed as biochemical. The settings on record: 1 μM Cmpd 1, panel of 119 kinases. On the procedure:
as §1

For a further assay, the target named is T1, PKCε (Homo sapiens, UniProt Q02156).
T1 sequence (Q02156 1-737): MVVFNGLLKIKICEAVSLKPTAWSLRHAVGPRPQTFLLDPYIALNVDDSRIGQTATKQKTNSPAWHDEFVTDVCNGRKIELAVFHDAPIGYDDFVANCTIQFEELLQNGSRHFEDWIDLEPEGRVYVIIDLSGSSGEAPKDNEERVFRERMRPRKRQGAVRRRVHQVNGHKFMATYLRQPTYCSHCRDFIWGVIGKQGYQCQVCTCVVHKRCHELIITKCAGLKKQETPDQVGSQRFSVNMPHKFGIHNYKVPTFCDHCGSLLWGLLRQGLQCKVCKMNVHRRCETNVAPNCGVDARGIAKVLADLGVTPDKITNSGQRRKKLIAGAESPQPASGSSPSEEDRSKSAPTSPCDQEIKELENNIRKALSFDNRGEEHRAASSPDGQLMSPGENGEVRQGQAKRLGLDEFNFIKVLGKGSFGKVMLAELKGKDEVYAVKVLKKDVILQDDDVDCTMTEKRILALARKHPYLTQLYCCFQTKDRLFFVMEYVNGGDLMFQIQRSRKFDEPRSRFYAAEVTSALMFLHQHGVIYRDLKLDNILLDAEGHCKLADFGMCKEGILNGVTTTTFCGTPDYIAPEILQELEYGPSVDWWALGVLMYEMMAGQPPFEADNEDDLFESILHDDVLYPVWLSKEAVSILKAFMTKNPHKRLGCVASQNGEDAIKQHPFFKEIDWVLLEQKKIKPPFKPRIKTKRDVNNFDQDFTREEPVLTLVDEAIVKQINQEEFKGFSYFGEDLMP
The experiment in a line: Z'-Lyte recombinant enzyme assay, PKCε. Format: biochemical. How it is done: as §1

The test system of assay [2] is HEK293 cells overexpressing PKCβ2. Briefly: PMA-induced IL-8 production in HEK293 cells over-expressing PKCβ2. Format: cell-based. The settings on record: HEK293 over-expressing PKCβ2, 3 nM PMA, 4-h supernatants; read-out: IC50, inhibition of IL-8 production in response to PMA. On the procedure:
For the HEK293 cell-based assay, HEK293 cells engineered to over-express full-length PKCβ2 were stimulated with 3 nM PMA in DMEM media supplemented with 0.5% FBS. 4-h cell culture supernatants were analyzed for IL-8 by MSD (Rockville, MD).

The target in the next assay is PKCδ (Homo sapiens, UniProt Q05655). The experiment in a line: Z'-Lyte recombinant enzyme assay, PKCδ. Format: biochemical. On the procedure:
as §1

The next assay deals with PKCγ (Homo sapiens, UniProt P05129). The experiment in a line: Z'-Lyte recombinant enzyme assay, PKCγ. The assay is classed as biochemical. On the procedure:
as §1

Assay [3] deals with PKC activity in glomerular lysates from ZSF1 obese rats. The experiment in a line: Radioactive pan-PKC kinase assay with glomerular lysates. The assay is classed as biochemical, rat. The settings on record: glomerular lysates from 20-week old ZSF1 obese rats, pan-PKC pseudo-substrate peptide. How it is done:
Glomeruli were isolated using an established protocol of serially sieving minced kidney cortex tissue through mesh filters of decreasing pore size[69]. For radioactive pan-PKC assays, glomeruli were lysed in a buffer consisting of 50 mM Tris–HCl pH 8, 5 mM EDTA, 5 mM EGTA, protease and phosphatase inhibitor cocktails, 1% 2-mercaptoethanol, and 0.028% n-dodecyl-β-D-maltopyranoside (Anatrace D310) by sonication using two 10 s pulses with a probe sonicator. Supernatants were collected following centrifugation at 4 °C at 20,200 × g for 10 min. A 25 μL aliquot was used in a 50 μL ^32P-ATP pan-PKC radioactive kinase assay with the pan-PKC pseudo-substrate peptide RFARKGSLRQKNV. The reaction was incubated for 10 min at 37 °C prior to filter binding and scintillation counting. Data are reported as CPM incorporation per μg of total protein in the reaction, as determined using Pierce Coomassie Plus Protein Assay of the original lysate (Pierce 23236). Where indicated, the reaction was run in the presence of increasing amounts of Cmpd 1.

A further assay deals with T2, PKCζ (Homo sapiens, UniProt Q05513).
T2 sequence (Q05513 1-592): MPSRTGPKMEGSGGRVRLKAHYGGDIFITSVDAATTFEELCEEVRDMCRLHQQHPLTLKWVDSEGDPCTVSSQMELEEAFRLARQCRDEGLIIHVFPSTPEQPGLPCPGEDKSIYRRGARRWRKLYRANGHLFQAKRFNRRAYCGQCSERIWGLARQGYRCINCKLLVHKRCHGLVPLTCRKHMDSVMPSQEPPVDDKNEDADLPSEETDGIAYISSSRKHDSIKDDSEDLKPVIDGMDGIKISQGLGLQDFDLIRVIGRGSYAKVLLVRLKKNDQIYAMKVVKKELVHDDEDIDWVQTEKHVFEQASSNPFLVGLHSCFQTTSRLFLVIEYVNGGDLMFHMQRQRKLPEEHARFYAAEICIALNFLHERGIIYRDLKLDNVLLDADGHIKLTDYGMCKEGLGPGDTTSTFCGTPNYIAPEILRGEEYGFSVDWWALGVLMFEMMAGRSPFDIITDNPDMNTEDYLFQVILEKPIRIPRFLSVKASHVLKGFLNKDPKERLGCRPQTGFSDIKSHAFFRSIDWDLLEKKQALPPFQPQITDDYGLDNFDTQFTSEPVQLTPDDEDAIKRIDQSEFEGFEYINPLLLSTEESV
Briefly: Z'-Lyte recombinant enzyme assay, PKCζ. The assay is classed as biochemical. How it is done: as §1

Molecules are shown by their SMILES.

PKCδ, sequence (Q05655 whole entry): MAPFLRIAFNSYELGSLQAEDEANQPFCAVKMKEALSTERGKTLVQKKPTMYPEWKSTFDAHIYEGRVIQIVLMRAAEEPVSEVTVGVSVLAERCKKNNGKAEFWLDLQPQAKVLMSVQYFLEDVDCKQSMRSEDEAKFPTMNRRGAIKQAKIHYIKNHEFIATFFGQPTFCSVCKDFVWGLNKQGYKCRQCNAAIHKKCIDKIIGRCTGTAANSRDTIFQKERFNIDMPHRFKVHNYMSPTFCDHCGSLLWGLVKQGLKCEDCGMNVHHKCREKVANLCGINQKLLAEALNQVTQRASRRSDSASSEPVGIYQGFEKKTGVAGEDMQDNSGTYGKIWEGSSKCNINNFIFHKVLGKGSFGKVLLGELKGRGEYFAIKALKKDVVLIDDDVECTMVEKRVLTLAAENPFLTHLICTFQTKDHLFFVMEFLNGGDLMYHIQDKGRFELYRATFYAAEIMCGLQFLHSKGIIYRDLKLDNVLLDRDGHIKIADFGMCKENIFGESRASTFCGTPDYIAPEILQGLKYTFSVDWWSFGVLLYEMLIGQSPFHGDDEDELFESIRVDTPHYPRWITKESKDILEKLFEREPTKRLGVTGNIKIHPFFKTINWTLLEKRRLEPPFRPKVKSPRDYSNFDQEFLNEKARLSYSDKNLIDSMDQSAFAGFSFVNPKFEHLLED
PKCη, sequence (P24723 whole entry): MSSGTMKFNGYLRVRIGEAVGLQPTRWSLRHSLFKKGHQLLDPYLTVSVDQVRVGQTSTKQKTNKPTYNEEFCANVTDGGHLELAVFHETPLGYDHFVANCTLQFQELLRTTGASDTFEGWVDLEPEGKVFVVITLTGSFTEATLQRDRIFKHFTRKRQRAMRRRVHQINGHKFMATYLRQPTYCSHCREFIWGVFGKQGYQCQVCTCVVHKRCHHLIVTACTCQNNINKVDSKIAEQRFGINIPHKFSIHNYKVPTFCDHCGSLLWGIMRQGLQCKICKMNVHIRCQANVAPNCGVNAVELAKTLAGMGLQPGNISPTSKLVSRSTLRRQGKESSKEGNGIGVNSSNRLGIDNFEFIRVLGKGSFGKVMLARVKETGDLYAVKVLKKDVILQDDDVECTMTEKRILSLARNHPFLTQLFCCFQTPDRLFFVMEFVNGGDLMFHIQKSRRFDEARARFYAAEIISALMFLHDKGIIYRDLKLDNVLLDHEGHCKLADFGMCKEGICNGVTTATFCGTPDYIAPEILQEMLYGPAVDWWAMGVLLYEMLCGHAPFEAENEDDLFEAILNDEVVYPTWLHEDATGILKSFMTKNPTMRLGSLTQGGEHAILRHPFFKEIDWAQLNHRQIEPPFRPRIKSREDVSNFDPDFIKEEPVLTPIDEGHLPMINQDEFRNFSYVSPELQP

With `Cc1ncc(F)c(Nc2n[nH]c3c2CN(C(=O)N2C[C@@H](C)N(CC4CCOCC4)C[C@@H]2C)C3(C)C)n1` [Cmpd 1, 5-[(2S,5R)-2,5-dimethyl-4-(tetrahydro-2H-pyran-4-ylmethyl)piperazin-l-yl]carbonyl-N-(5-fluoro-2-methylpyrimidin-4-yl)-6,6-dimethyl-1,4,5,6-tetrahydropyrrolo[3,4-c]pyrazol-3-amine], the IC50 was 76 nM in assay [1]; 1520 nM at PKCη; 623 nM at PKCε; 26 nM in [2]; 1550 nM on PKCδ; 96 nM at PKCγ. In addition, the IC50 is 70 nM in assay [3] and > 10000 nM on PKCζ. This compound registered an Average food consumption in the assay with ZSF1 obese rats of 24 g/day. In addition, the Body weight change result with ZSF1 obese rats is on record as “lost weight”. In addition, in the assay on ZSF1 obese rats, the “Reduction in food consumption versus no-drug chow” value is 37%. In addition, the Kinome selectivity entry with panel of 119 kinases is reported as “good selectivity”.
